Assay results from PubChem BioAssay AID1963425 (Molecular Pharmacology Branch, DTP, NCI, 2024).

System: 323965-272-R-J2-PDC complex spheroid growth, % test/control
Assay: Anticancer human tumor 323965-272-R-J2-PDC patient-derived pancreatic carcinoma cell line growth inhibition [Asc]
Settings: for IC50: curve of first compound; for viability, T/C: stronger effect = lower value
Method: Multicellular complex tumor spheroid response to apoptosis pathway targeting inhibitors Alrizomadlin, Pelcitoclax, and Dasminapant in combination with a variety of drugs and investigational agents in selected tumor cell lines
The MDM2 inhibitor alrizomadlin, the Bcl-2/Bcl-xL inhibitor pelcitoclax, and the IAPs inhibitor dasminapant were evaluated both individually and in combination with standard of care and investigational anticancer small molecules within a complex spheroid model of solid tumors. . Complex spheroids include a stromal component modeled by human endothelial cells (HUVEC) and fibroblasts modeled by human mesenchymal stem cells (MSCs). The concentration ranges selected for each drug and investigational agent were based upon clinically achievable concentrations if the clinical Cmax of the agent was known.
Compounds. The drugs and investigational agents: alrizomadlin (APG-115; NSC831270), pelcitoclax (APG-1252; NSC835773), dasminapant (APG-1387;NSC834197), TAK-243 (NSC785004), copanlisib (NSC809693), olaparib (NSC753686), talazoparib (NSC767125), cobimetinib (NSC 768068), eltanexor (KPT-8602, NSC 794443), abemaciclib (NSC 768073), sotorasib (NSC818433), adagrasib (NSC 831453), MRTX-1133 (NSC 836407), Iadademestat (ORY1001, NSC 806812), and RMC-4630 (NSC839698), were obtained from the NCI Developmental Therapeutics Program Chemical Repository. The FDA-approved anticancer drug set is available from the Developmental Therapeutics Program at https://dtp.cancer.gov/organization/dscb/obtaining/available plates.htm. […] The stock solutions were prepared in dimethyl sulfoxide (DMSO, Sigma-Aldrich, St. Louis, MO, cat. D2650) at 800-fold the tested concentration and stored at -70 degrees C prior to their use. All drugs and investigational agents were tested over a range starting from a high concentration at or near the clinical Cmax and decreasing in half-log increments. If the clinical Cmax for an agent had not been determined, the highest concentration tested was 10 microM.
The patient-derived cancer (PDC) cell lines include five colon adenocarcinomas: 186277-243-T-J2-PDC, 616215-338-R-J1-PDC, 439559-082-T-J2-PDC, 463943-066-T-J2-PDC, and 519858-162-T-J1-PDC; three pancreatic carcinomas: 323965-272-R-J2-PDC, 521955-158-R6-J3-PDC, and 521955-158-R2-J5-PDC; two uterine sarcomas: 327498-152-R-J2-PDC and 993429-296-R-J1-PDC; two rhabdomyosarcomas: 755483-174-R-J1-PDC and 772245-204-R-J1-PDC; two soft tissue sarcomas: 126254-015-R-J1-PDC and 494315-158-R-J1-PDC; two malignant fibrous histiocytomas: 317291-083-R-J1-PDC and 596521-263-R-J1-PDC; two breast carcinomas: 171881-019-R-J1-PDC and 885512-296-R-J2-PDC; and one ovarian carcinoma: 6556581-035-R-J-PDC were obtained from the NCI PDMR, (https://pdmr.cancer.gov). The established cell lines HSSY-2 synovial sarcoma (RRID:CVCL 8719), SYO-1 synovial sarcoma (RRID:CVCL_7146), MPNST malignant peripheral neural sheath tumor were obtained from the Sloan Kettering Institute. The following established cell lines were purchased from the American Type Culture Collection (ATCC, Manassas, VA), Sor the received from the NCI repository:, PANC-1 pancreatic carcinoma (CRL-1469, RRID:CVCL_0480), OVCAR-5 ovarian carcinoma (RRID:CVCL_1628), OVCAR-8 ovarian carcinoma (RRID:CVCL_1629), , MCF-7 breast carcinoma (CRL-12584, RRID:CVCL_0031), MDA-MB-231 breast carcinoma (CRL-12532, RRID:CVCL_0062), NCI-H1876 small cell lung carcinoma (CRL-5902, RRID:CVCL_1503), NCI-H510A small cell lung carcinoma (HTB-184, RRID:CVCL_1565), NCI-H1417 (CRL-5869, RRID:CVCL_1469), and NCI-H196 small cell lung carcinoma (CRL-5823, RRID:CVCL_1509). Dr. Peter Houghton (Greehey Children's Cancer Research Institute, University of Texas Health Science Center, San Antonio, TX) provided Rh-18 rhabdomyosarcoma (RRID:CVCL_1659). Pooled donor human umbilical vein endothelial cells (HUVEC, Lonza, cat. CC-2519) and human mesenchymal stem cells (hMSC, Lonza, cat. PT-2501) were purchased from Lonza (Walkersville, MD).
Cell Culture. […]
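Further: compound exposure lasted 7 days starting three days after spheroid seeding.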
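Wherever viability, T/C is given: 100% = DMSO vehicle control wells with viability set relative to vehicle.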

## C=CC(=O)N1CCN(c2nc(=O)n(-c3c(C)ccnc3C(C)C)c3nc(-c4c(O)cccc4F)c(F)cc23)C(C)C1 (configuration not stated) + CCN1C(C(=O)NC23CCC(C(=O)O)(CC2)CC3)C(c2cccc(Cl)c2F)C2(C(=O)Nc3cc(Cl)ccc32)C12CCCCC2
Second compound 0.00949 µM
  IC50: > 10 µM
Second compound 0.03 µM
  IC50: > 10 µM
Second compound 0.0949 µM
  IC50: > 10 µM
Second compound 0.3 µM
  IC50: > 10 µM
Second compound 0.949 µM
  IC50: > 10 µM
Second compound 3 µM
  IC50: > 10 µM
Second compound 0.00949 µM, first compound 0.0316 µM
  viability, T/C: 82%
Second compound 0.00949 µM, first compound 0.1 µM
  viability, T/C: 73.5%
Second compound 0.00949 µM, first compound 0.316 µM
  viability, T/C: 60.5%
Second compound 0.00949 µM, first compound 1 µM
  viability, T/C: 64.8%
Second compound 0.00949 µM, first compound 3.16 µM
  viability, T/C: 68.7%
Second compound 0.00949 µM, first compound 10 µM
  viability, T/C: 59.1%
Second compound 0.03 µM, first compound 0.0316 µM
  viability, T/C: 75.4%
Second compound 0.03 µM, first compound 0.1 µM
  viability, T/C: 70.1%
Second compound 0.03 µM, first compound 0.316 µM
  viability, T/C: 68.7%
Second compound 0.03 µM, first compound 1 µM
  viability, T/C: 68.7%
Second compound 0.03 µM, first compound 3.16 µM
  viability, T/C: 65.8%
Second compound 0.03 µM, first compound 10 µM
  viability, T/C: 65.6%
Second compound 0.0949 µM, first compound 0.0316 µM
  viability, T/C: 80.7%
Second compound 0.0949 µM, first compound 0.1 µM
  viability, T/C: 67.2%
Second compound 0.0949 µM, first compound 0.316 µM
  viability, T/C: 62.8%
Second compound 0.0949 µM, first compound 1 µM
  viability, T/C: 73%
Second compound 0.0949 µM, first compound 3.16 µM
  viability, T/C: 66.2%
Second compound 0.0949 µM, first compound 10 µM
  viability, T/C: 61.8%
Second compound 0.3 µM, first compound 0.0316 µM
  viability, T/C: 75.1%
Second compound 0.3 µM, first compound 0.1 µM
  viability, T/C: 73.2%
Second compound 0.3 µM, first compound 0.316 µM
  viability, T/C: 65.6%
Second compound 0.3 µM, first compound 1 µM
  viability, T/C: 60.9%
Second compound 0.3 µM, first compound 3.16 µM
  viability, T/C: 67.7%
Second compound 0.3 µM, first compound 10 µM
  viability, T/C: 63.2%
Second compound 0.949 µM, first compound 0.0316 µM
  viability, T/C: 84.7%
Second compound 0.949 µM, first compound 0.1 µM
  viability, T/C: 68.3%
Second compound 0.949 µM, first compound 0.316 µM
  viability, T/C: 62.8%
Second compound 0.949 µM, first compound 1 µM
  viability, T/C: 69.8%
Second compound 0.949 µM, first compound 3.16 µM
  viability, T/C: 73.7%
Second compound 0.949 µM, first compound 10 µM
  viability, T/C: 61.7%
Second compound 3 µM, first compound 0.0316 µM
  viability, T/C: 79.3%
Second compound 3 µM, first compound 0.1 µM
  viability, T/C: 71.5%
Second compound 3 µM, first compound 0.316 µM
  viability, T/C: 61%
Second compound 3 µM, first compound 1 µM
  viability, T/C: 68.1%
Second compound 3 µM, first compound 3.16 µM
  viability, T/C: 65.8%
Second compound 3 µM, first compound 10 µM
  viability, T/C: 58.6%
